In PubChem BioAssay AID248 (DTP/NCI, 2004):
Values joined by “and” are separate entries in the source; they are usually repeats but may differ in a detail not shown here. Equal values may be shown once. Toxic doses and inconclusive results are not listed. No stated cut-off is given here; in the data, active means T/C of 150% or more; inactive means T/C below 125%. Peptide text beside a SMILES is read from it. * marks the point of attachment. Cbz = O=C(OCc1ccccc1)*

System: L1210 leukemia ip in BDF1 mice, survival T/C
Test: NCI In Vivo Anticancer Drug Screen. Data for tumor model L1210 Leukemia (intraperitoneal) in B6D2F1 (BDF1) mice
Settings: endpoint: mean survival time, higher = longer survival
Procedure, shortened: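 Transplantable tumor model; survival measured in treated vs vehicle control mice. Value = treated/control.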

[1] = dose: 100.0 mg/kg/injection, schedule: Q04DX003 (ip), vehicle: saline with Tween-80
[2] = dose: 200.0 mg/kg/injection, schedule: Q04DX003 (ip), vehicle: saline with Tween-80
[3] = dose: 400.0 mg/kg/injection, schedule: Q04DX003 (ip), vehicle: saline with Tween-80
[4] = dose: 100.0 mg/kg/injection, schedule: Q01DX001 (ip), vehicle: other
[5] = dose: 50.0 mg/kg/injection, schedule: Q01DX001 (ip), vehicle: carboxymethylcellulose (CMC)
[6] = dose: 100.0 mg/kg/injection, schedule: Q01DX001 (ip), vehicle: carboxymethylcellulose (CMC)
[7] = dose: 200.0 mg/kg/injection, schedule: Q01DX001 (ip), vehicle: carboxymethylcellulose (CMC)
[8] = dose: 400.0 mg/kg/injection, schedule: Q01DX001 (ip), vehicle: carboxymethylcellulose (CMC)
[9] = dose: 100.0 mg/kg/injection, schedule: Q01DX001 (ip), vehicle: saline
[10] = dose: 200.0 mg/kg/injection, schedule: Q01DX001 (ip), vehicle: saline
[11] = dose: 400.0 mg/kg/injection, schedule: Q01DX001 (ip), vehicle: saline
[12] = dose: 100.0 mg/kg/injection, schedule: Q04DX003 (ip), vehicle: Klucel (hydroxypropylcellulose) (HPC)
[13] = dose: 25.0 mg/kg/injection, schedule: Q04DX003 (ip), vehicle: Klucel (hydroxypropylcellulose) (HPC)
[14] = dose: 50.0 mg/kg/injection, schedule: Q04DX003 (ip), vehicle: Klucel (hydroxypropylcellulose) (HPC)

Measured: T/C

CCNS(=O)(=O)c1cccc(C(N)=S)c1
inactive: dose: 100.0 mg/kg/injection, schedule: Q01DX001 (ip), vehicle: gum acacia 103 % of control | dose: 200.0 mg/kg/injection, schedule: Q01DX001 (ip), vehicle: gum acacia 105 % of control | dose: 400.0 mg/kg/injection, schedule: Q01DX001 (ip), vehicle: gum acacia 106 % of control

CC(O)c1ccc2ccccc2c1 (centres undefined)
inactive: [1] 98 % of control | [2] 101 % of control | [3] 96 % of control

CC(=O)Nc1ccc(N2CCN=N2)cc1
inactive: dose: 25.0 mg/kg/injection, schedule: Q01DX009 (ip), vehicle: saline with Tween-80 103 % of control | dose: 50.0 mg/kg/injection, schedule: Q01DX009 (ip), vehicle: saline with Tween-80 109 % of control | [1] 97 % of control

CNS(=O)(=O)c1ccc(N)cc1
inactive: [4] 107 % of control | dose: 100.0 mg/kg/injection, schedule: Q01DX009 (ip), vehicle: saline with Tween-80 102 % of control | dose: 100.0 mg/kg/injection, schedule: Q04DX003 (ip), vehicle: other 97 % of control | dose: 200.0 mg/kg/injection, schedule: Q01DX001 (ip), vehicle: other 104 % of control | dose: 200.0 mg/kg/injection, schedule: Q01DX009 (ip), vehicle: saline with Tween-80 110 % of control | dose: 200.0 mg/kg/injection, schedule: Q04DX003 (ip), vehicle: other 106 % of control | dose: 400.0 mg/kg/injection, schedule: Q01DX001 (ip), vehicle: other 100 % of control | dose: 400.0 mg/kg/injection, schedule: Q01DX009 (ip), vehicle: saline with Tween-80 98 % of control | dose: 400.0 mg/kg/injection, schedule: Q04DX003 (ip), vehicle: other 108 % of control

CN(C)C(=O)Nc1ccc(Cl)cc1Cl
inactive: dose: 100.0 mg/kg/injection, schedule: Q04DX002 (ip), vehicle: saline with Tween-80 98 % of control | dose: 200.0 mg/kg/injection, schedule: Q04DX002 (ip), vehicle: saline with Tween-80 110 % of control | dose: 400.0 mg/kg/injection, schedule: Q04DX002 (ip), vehicle: saline with Tween-80 121 % of control

CCOC(=O)c1ccc2c3c([nH]c2c1C)-c1ccccc1CC3
inactive: [5] 95 % of control | [6] 97 % of control | [7] 106 % of control | [8] 103 % of control

[Cl][Pd][Cl].[NH-]CCN1CC1
inactive: dose: 25.0 mg/kg/injection, schedule: Q04DX002 (ip), vehicle: saline + alcohol 113 % of control | dose: 50.0 mg/kg/injection, schedule: Q04DX002 (ip), vehicle: saline + alcohol 102 % of control | dose: 100.0 mg/kg/injection, schedule: Q04DX002 (ip), vehicle: saline + alcohol 117 % of control | dose: 100.0 mg/kg/injection, schedule: Q04DX002 (ip), vehicle: saline 116 % of control

CC(=O)NNc1ccc([N+](=O)[O-])cn1
inactive: [9] 100 % of control | [10] 100 % of control | [11] 100 % of control

CCOC(=O)/C(C#N)=C(\C)c1cccc(C)c1
inactive: dose: 25.0 mg/kg/injection, schedule: Q04DX003 (ip), vehicle: saline with Tween-80 94 % of control | dose: 50.0 mg/kg/injection, schedule: Q04DX003 (ip), vehicle: saline with Tween-80 94 % of control | [1] 102 % of control

CCOC(=O)c1ccc(N=Cc2ccccc2O)cc1
inactive: dose: 50.0 mg/kg/injection, schedule: Q01DX009 (ip), vehicle: Klucel (hydroxypropylcellulose) (HPC) 98 % of control | dose: 75.0 mg/kg/injection, schedule: Q01DX001 (ip), vehicle: Klucel (hydroxypropylcellulose) (HPC) 88 % of control | dose: 100.0 mg/kg/injection, schedule: Q01DX009 (ip), vehicle: Klucel (hydroxypropylcellulose) (HPC) 89 % of control | dose: 150.0 mg/kg/injection, schedule: Q01DX001 (ip), vehicle: Klucel (hydroxypropylcellulose) (HPC) 105 % of control | dose: 200.0 mg/kg/injection, schedule: Q01DX009 (ip), vehicle: Klucel (hydroxypropylcellulose) (HPC) 106 % of control | dose: 300.0 mg/kg/injection, schedule: Q01DX001 (ip), vehicle: Klucel (hydroxypropylcellulose) (HPC) 88 % of control

CC(C)COC1CCCC(Oc2ccccc2)O1 (centres undefined)
inactive: dose: 55.0 mg/kg/injection, schedule: Q01DX Z (ip), vehicle: methylcellulose (MC) 92 % of control | dose: 83.0 mg/kg/injection, schedule: Q01DX Z (ip), vehicle: methylcellulose (MC) 100 % of control | dose: 125.0 mg/kg/injection, schedule: Q01DX Z (ip), vehicle: methylcellulose (MC) 91 % of control

CCOC(=O)CCC(NC(=O)C(CCC(=O)O)NC(=O)OCc1ccccc1)C(=O)OCC (stereo not drawn) (Cbz-Glu-Glu(OEt)-OEt; configuration not given here)
inactive: [12] 94 % of control | dose: 200.0 mg/kg/injection, schedule: Q04DX003 (ip), vehicle: Klucel (hydroxypropylcellulose) (HPC) 101 % of control | dose: 400.0 mg/kg/injection, schedule: Q04DX003 (ip), vehicle: Klucel (hydroxypropylcellulose) (HPC) 96 % of control

O=[N+]([O-])c1ccccc1C=Nc1ccccc1
inactive: dose: 100.0 mg/kg/injection, schedule: Q01DX009 (ip), vehicle: acetone 96 % of control | dose: 100.0 mg/kg/injection, schedule: Q04DX003 (ip), vehicle: acetone 106 % of control | dose: 200.0 mg/kg/injection, schedule: Q01DX009 (ip), vehicle: acetone 98 % of control | dose: 200.0 mg/kg/injection, schedule: Q04DX003 (ip), vehicle: acetone 97 % of control | dose: 400.0 mg/kg/injection, schedule: Q01DX009 (ip), vehicle: acetone 102 % of control | dose: 400.0 mg/kg/injection, schedule: Q04DX003 (ip), vehicle: acetone 101 % of control

O=C(/C=C\c1ccccc1)C(=O)/C=C/c1ccccc1
inactive: dose: 25.0 mg/kg/injection, schedule: Q01DX009 (ip), vehicle: other 93 % of control | [13] 105 % of control | dose: 50.0 mg/kg/injection, schedule: Q01DX009 (ip), vehicle: other 98 % of control | [14] 94 % of control | [4] 89 % of control | [12] 86 % of control

Cc1cccc([N+](=O)[O-])c1N
inactive: [5] 109 % of control | [6] 109 % of control | [7] 113 % of control | [8] 115 % of control

CCN(CC)CCCC(C)Nc1ncnc(N)c1N (centres undefined)
inactive: dose: 12.5 mg/kg/injection, schedule: Q04DX003 (ip), vehicle: Klucel (hydroxypropylcellulose) (HPC) 93 % of control | [13] 91 % of control | [14] 102 % of control

C/C(=N/S(=O)(=O)c1ccc(C)cc1)OCCN(C)C
inactive: dose: 3.0 mg/kg/injection, schedule: Q01DX009 (ip), vehicle: saline with Tween-80 100 % of control | dose: 3.0 mg/kg/injection, schedule: Q04DX003 (ip), vehicle: saline with Tween-80 98 % of control | dose: 6.0 mg/kg/injection, schedule: Q01DX009 (ip), vehicle: saline with Tween-80 95 % of control | dose: 6.0 mg/kg/injection, schedule: Q04DX003 (ip), vehicle: saline with Tween-80 101 % of control | dose: 12.5 mg/kg/injection, schedule: Q04DX003 (ip), vehicle: saline with Tween-80 90 % of control

CC(NC(=O)Oc1ccccc1)Oc1ccccc1 (centres undefined)
inactive: [1] 96 % of control | [2] 101 % of control | [3] 96 % of control

OC1OCC(OCc2ccccc2)C(OCc2ccccc2)C1OCc1ccccc1 (centres undefined)
inactive: [6] 101 % of control | [7] 101 % of control | [8] 95 % of control

C/C(=C\Cl)CN(C)C
inactive: [1] 97 % of control | [2] 94 % of control

Cl[Si](Cl)(Cl)CCc1ccccc1
inactive: dose: 25.0 mg/kg/injection, schedule: Q01DX009 (ip), vehicle: saline 104 % of control | dose: 50.0 mg/kg/injection, schedule: Q01DX009 (ip), vehicle: saline 101 % of control | dose: 100.0 mg/kg/injection, schedule: Q01DX009 (ip), vehicle: saline 90 % of control

COc1ccc(CN2CCCN(Cc3ccc(OC)cc3OC)C2c2ccccn2)c(OC)c1
inactive: dose: 50.0 mg/kg/injection, schedule: Q01DX001 (ip), vehicle: saline 101 % of control | [9] 95 % of control | [10] 91 % of control | [11] 89 % of control

CN(C)NCCOC(c1ccccc1)c1ccccc1
inactive: dose: 25.0 mg/kg/injection, schedule: Q04DX002 (ip), vehicle: Klucel (hydroxypropylcellulose) (HPC) 102 % of control | dose: 50.0 mg/kg/injection, schedule: Q04DX002 (ip), vehicle: Klucel (hydroxypropylcellulose) (HPC) 106 % of control | dose: 100.0 mg/kg/injection, schedule: Q04DX002 (ip), vehicle: Klucel (hydroxypropylcellulose) (HPC) 95 % of control and 108 % of control
